Laboratory results: patent US20090042883A1, “ANTITUMOR AGENT” (KYOWA HAKKOKOGYO CO., priority 2005, published 2009)

Tests used:
Format in all cases: cell-based
[1] = test system: human lung cancer NCI-H596 cells; test: Growth inhibition test on human lung cancer NCI-H596 cells (WST-1, % viability); settings: test compound 10 μmol/L, cells without test compound = 100%
Protocol: (§1) Four thousand cells of human lung cancer NCI-H596 were inoculated into each well of a 96-well microplate (manufactured by Nunc Corp.), and using RPMI1640 medium (culture medium) containing 10% FCS, preculturing was performed in a 5% carbon dioxide incubator at 37° C. for 24 hours. A DMSO solution of each test compound prepared in a concentration of 10 mmol/L was diluted with the culture medium to a final concentration of 10 μmol/L, and the diluted solution was added to each well. The individual wells were further cultured in the 5% carbon dioxide incubator at 37° C. for 72 hours. After completion of the culturing, 10 μL of WST-1 labeled mixture (manufactured by Roche Diagnostic Corp.) was added to each well, and culturing was performed in the 5% carbon dioxide incubator at 37° C. for 2 hours. Using a microplate spectrophotometer (Model 550; manufactured by Bio-Rad), the absorbance of each well was measured at 450 nm and 655 nm. The value obtained by subtracting the absorbance at 450 nm from the absorbance at 655 nm (absorbance difference) was calculated for each well. The value for cells not incorporated with a test compound was designated as 100%, and the value at a well not containing cells was designated as 0%. By comparing these values with the absorbance difference obtained at the well in which each test compound was added, the cell viability (% viability) after treatment with the test compound was calculated.

[2] = test system: human acute myelocytic leukemia MV4; 11 cells; test: Growth inhibition test on human acute myelocytic leukemia MV4; 11 cells (WST-1, % viability); settings: test compound 10 μmol/L, cells without test compound = 100%
Protocol: as §1, with “Ten thousand” for “Four thousand”, “human acute myelocytic leukemia MV4; 11” for “human lung cancer NCI-H596”, “using IMDM” for “using RPMI1640”, “for 1 hour.” for “for 2 hours.”, “spectrophotometer (SpectraMax 340PC384;” for “spectrophotometer (Model 550;”, “by Nihon Molecular Devices),” for “by Bio-Rad),”

[3] = test system: human T-cell lymphoma Karpas-299 cells; test: Growth inhibition test on human T-cell lymphoma Karpas-299 cells (WST-1, % viability); settings: test compound 10 μmol/L, 72 hours, cells without test compound = 100%
Protocol: as §1, with “Five” for “Four”, “T-cell lymphoma Karpas-299” for “lung cancer NCI-H596”, “RPMI” for “RPMI1640”, “5” for “24”, “(SpectraMax 340PC384;” for “(Model 550;”, “Nihon Molecular Devices),” for “Bio-Rad),”

[4] = test system: human mammary cancer BT-474 cells; test: Growth inhibition test on human mammary cancer BT-474 cells (WST-1, % viability); settings: test compound 10 μmol/L, cells without test compound = 100%
Protocol: as §1, with “mammary” for “lung”, “BT-474” for “NCI-H596”, “Dulbecco's Modified Eagle's Medium (DMEM)” for “RPMI1640 medium”, “(SpectraMax 340PC384;” for “(Model 550;”, “Nihon Molecular Devices),” for “Bio-Rad),”

Compound	Viability of tumor cells (% viability), Human lung cancer NCI-H596 cells [1] [%]	Viability of tumor cells (% viability), Human acute myelocytic leukemia MV4; 11 cells [2] [%]	Viability of tumor cells (% viability), Human T-cell lymphoma Karpas-299 cells [3] [%]	Viability of tumor cells (% viability), Human mammary cancer BT-474 cells [4] [%]
CCc1c(O)cc(O)c(C(=O)c2ccc(OCCN3CCOCC3)c(OC)c2)c1CC(=O)N(CCOC)CCOC.Cl [Compound 139]	16	1	14	14
CCc1c(O)cc(O)c(C(=O)c2ccc(C(F)(F)F)cc2)c1CC(=O)N(CCO)CCOC [Compound 144]	14	0	15	13
CCc1c(O)cc(O)c(C(=O)c2ccc(OCCCN3CCOCC3)c(OC)c2)c1CC(=O)N(CCOC)CCOC [Compound 149]	14	0	14	14
CCc1c(O)cc(O)c(C(=O)c2ccsc2)c1CC(=O)N(CCO)CCOC [Compound 151]	28	0	13	13
